For 22 compounds, IC50 results are on record in BindingDB's records for doi:10.1016/j.bmcl.2010.10.033 (Glaxosmithkline, 2010).

Assay [1] is described as follows: Antagonist activity at CCR5 in HOS cells assessed as inhibition of HIV-1 Ba-L infection.
Assay [2] is described as follows: Antagonist activity at CCR5 in human peripheral blood lymphocytes cells assessed as inhibition of HIV-1 Ba-L infection.

In the case of `C=CCN(C(=O)Cc1ccc(C(N)=O)cc1)C1CCN(CCC2(c3cccc(F)c3)CCN(C(=O)c3cc(S(=O)(=O)NC(C)(C)C)c(F)cc3Cl)CC2)CC1` [4-(2-(allyl(1-(2-(1-(5-(N-tert-butylsulfamoyl)-2-chloro-4-fluorobenzoyl)-4-(3-fluorophenyl)piperidin-4-yl)ethyl)piperidin-4-yl)amino)-2-oxoethyl)benzamide], in assay [1], the IC50 worked out at 210 nM. On the same count and under the same terms, the same measure for `C=CCN(C(=O)Nc1ccc(OC(C)=O)cc1)C1CCN(CCC2(c3cccc(F)c3)CCN(C(=O)c3cc(S(=O)(=O)NC(C)(C)C)c(F)cc3Cl)CC2)CC1` [4-(3-allyl-3-(1-(2-(1-(5-(N-tert-butylsulfamoyl)-2-chloro-4-fluorobenzoyl)-4-(3-fluorophenyl)piperidin-4-yl)ethyl)piperidin-4-yl)ureido)phenyl acetate]: 60 nM; for `C=CCN(C(=O)NCc1ccc(C(N)=O)cc1)C1CCN(CCC2(c3cccc(F)c3)CCN(C(=O)c3cc(S(=O)(=O)NC(C)(C)C)c(F)cc3Cl)CC2)CC1` [4-((3-allyl-3-(1-(2-(1-(5-(N-tert-butylsulfamoyl)-2-chloro-4-fluorobenzoyl)-4-(3-fluorophenyl)piperidin-4-yl)ethyl)piperidin-4-yl)ureido)methyl)benzamide]: 3100 nM.

With `C=CCN(C(=O)OCc1ccc(S(C)(=O)=O)cc1)C1CCN(CCC2(c3cccc(F)c3)CCN(C(=O)c3cc(S(=O)(=O)NC(C)(C)C)c(F)cc3Cl)CC2)CC1` [4-(methylsulfonyl)benzyl allyl(1-(2-(1-(5-(N-tert-butylsulfamoyl)-2-chloro-4-fluorobenzoyl)-4-(3-fluorophenyl)piperidin-4-yl)ethyl)piperidin-4-yl)carbamate], the IC50 in assay [1] stood at 17 nM; in assay [2], 4.5 nM. Turning to `C=CCN(C(=O)OCc1ccc(OC(F)(F)F)cc1)C1CCN(CCC2(c3cccc(F)c3)CCN(C(=O)c3cc(S(=O)(=O)NC(C)(C)C)c(F)cc3Cl)CC2)CC1` [4-(trifluoromethoxy)benzyl allyl(1-(2-(1-(5-(N-tert-butylsulfamoyl)-2-chloro-4-fluorobenzoyl)-4-(3-fluorophenyl)piperidin-4-yl)ethyl)piperidin-4-yl)carbamate], the 50% inhibitory concentration (IC50) in assay [1] came out at 27 nM. As to `C=CCN(C(=O)OCc1ccc(C(F)(F)F)cc1)C1CCN(CCC2(c3cccc(F)c3)CCN(C(=O)c3cc(S(=O)(=O)NC(C)(C)C)c(F)cc3Cl)CC2)CC1` [4-(trifluoromethyl)benzyl allyl(1-(2-(1-(5-(N-tert-butylsulfamoyl)-2-chloro-4-fluorobenzoyl)-4-(3-fluorophenyl)piperidin-4-yl)ethyl)piperidin-4-yl)carbamate], the IC50 in assay [1] is 15 nM; in assay [2], 40 nM.

`C=CCN(C(=O)OCc1ccc(C#N)cc1)C1CCN(CCC2(c3cccc(F)c3)CCN(C(=O)c3cc(S(=O)(=O)NC(C)(C)C)c(F)cc3Cl)CC2)CC1` [4-cyanobenzyl allyl(1-(2-(1-(5-(N-tert-butylsulfamoyl)-2-chloro-4-fluorobenzoyl)-4-(3-fluorophenyl)piperidin-4-yl)ethyl)piperidin-4-yl)carbamate]: the IC50 in assay [1] was 4.5 nM.

As to `C=CCN(C(=O)OCc1ccc(F)cc1)C1CCN(CCC2(c3cccc(F)c3)CCN(C(=O)c3cc(S(=O)(=O)NC(C)(C)C)c(F)cc3Cl)CC2)CC1` [4-fluorobenzyl allyl(1-(2-(1-(5-(N-tert-butylsulfamoyl)-2-chloro-4-fluorobenzoyl)-4-(3-fluorophenyl)piperidin-4-yl)ethyl)piperidin-4-yl)carbamate], the IC50 in assay [1] came to 22 nM. On to `C=CCN(C(=O)OCc1ccc([N+](=O)[O-])cc1)C1CCN(CCC2(c3cccc(F)c3)CCN(C(=O)c3cc(S(=O)(=O)NC(C)(C)C)c(F)cc3Cl)CC2)CC1` [4-nitrobenzyl allyl(1-(2-(1-(5-(N-tert-butylsulfamoyl)-2-chloro-4-fluorobenzoyl)-4-(3-fluorophenyl)piperidin-4-yl)ethyl)piperidin-4-yl)carbamate], for which the IC50 in assay [1] was determined as 8.6 nM; in assay [2], 24 nM. The matching figures for `C=CCN(C(=O)Nc1ccc(S(C)(=O)=O)cc1)C1CCN(CCC2(c3cccc(F)c3)CCN(C(=O)c3cc(S(=O)(=O)NC(C)(C)C)c(F)cc3Cl)CC2)CC1` [5-(4-(2-(4-(1-allyl-3-(4-(methylsulfonyl)phenyl)ureido)piperidin-1-yl)ethyl)-4-(3-fluorophenyl)piperidine-1-carbonyl)-N-tert-butyl-4-chloro-2-fluorobenzenesulfonamide]: 11.5 nM and 35 nM. The matching figures for `C=CCN(C(=O)NCc1ccc(C(F)(F)F)cc1)C1CCN(CCC2(c3cccc(F)c3)CCN(C(=O)c3cc(S(=O)(=O)NC(C)(C)C)c(F)cc3Cl)CC2)CC1` [5-(4-(2-(4-(1-allyl-3-(4-(trifluoromethyl)benzyl)ureido)piperidin-1-yl)ethyl)-4-(3-fluorophenyl)piperidine-1-carbonyl)-N-tert-butyl-4-chloro-2-fluorobenzenesulfonamide]: 6.9 nM and 42 nM. With `C=CCN(C(=O)Nc1ccc(C(F)(F)F)cc1)C1CCN(CCC2(c3cccc(F)c3)CCN(C(=O)c3cc(S(=O)(=O)NC(C)(C)C)c(F)cc3Cl)CC2)CC1` [5-(4-(2-(4-(1-allyl-3-(4-(trifluoromethyl)phenyl)ureido)piperidin-1-yl)ethyl)-4-(3-fluorophenyl)piperidine-1-carbonyl)-N-tert-butyl-4-chloro-2-fluorobenzenesulfonamide], the IC50 in assay [1] turned out to be 64 nM. Turning to `C=CCN(C(=O)NCc1ccc(C#N)cc1)C1CCN(CCC2(c3cccc(F)c3)CCN(C(=O)c3cc(S(=O)(=O)NC(C)(C)C)c(F)cc3Cl)CC2)CC1` [5-(4-(2-(4-(1-allyl-3-(4-cyanobenzyl)ureido)piperidin-1-yl)ethyl)-4-(3-fluorophenyl)piperidine-1-carbonyl)-N-tert-butyl-4-chloro-2-fluorobenzenesulfonamide], the IC50 came out at 3.9 nM in assay [1] and 3.7 nM in assay [2].

As to `C=CCN(C(=O)Nc1ccc(C#N)cc1)C1CCN(CCC2(c3cccc(F)c3)CCN(C(=O)c3cc(S(=O)(=O)NC(C)(C)C)c(F)cc3Cl)CC2)CC1` [5-(4-(2-(4-(1-allyl-3-(4-cyanophenyl)ureido)piperidin-1-yl)ethyl)-4-(3-fluorophenyl)piperidine-1-carbonyl)-N-tert-butyl-4-chloro-2-fluorobenzenesulfonamide], the IC50 amounted to 20.5 nM in assay [1] and 25 nM in assay [2]. Turning to `C=CCN(C(=O)NCc1ccc(F)cc1)C1CCN(CCC2(c3cccc(F)c3)CCN(C(=O)c3cc(S(=O)(=O)NC(C)(C)C)c(F)cc3Cl)CC2)CC1` [5-(4-(2-(4-(1-allyl-3-(4-fluorobenzyl)ureido)piperidin-1-yl)ethyl)-4-(3-fluorophenyl)piperidine-1-carbonyl)-N-tert-butyl-4-chloro-2-fluorobenzenesulfonamide], the IC50 in assay [1] amounted to 46 nM.

As to `C=CCN(C(=O)Nc1ccc(F)cc1)C1CCN(CCC2(c3cccc(F)c3)CCN(C(=O)c3cc(S(=O)(=O)NC(C)(C)C)c(F)cc3Cl)CC2)CC1` [5-(4-(2-(4-(1-allyl-3-(4-fluorophenyl)ureido)piperidin-1-yl)ethyl)-4-(3-fluorophenyl)piperidine-1-carbonyl)-N-tert-butyl-4-chloro-2-fluorobenzenesulfonamide], the IC50 in assay [1] was determined as 34 nM. As for `C=CCN(C(=O)CCc1ccc(OC(F)(F)F)cc1)C1CCN(CCC2(c3cccc(F)c3)CCN(C(=O)c3cc(S(=O)(=O)NC)c(F)cc3Cl)CC2)CC1` [N-allyl-N-(1-(2-(1-(2-chloro-4-fluoro-5-(N-methylsulfamoyl)benzoyl)-4-(3-fluorophenyl)piperidin-4-yl)ethyl)piperidin-4-yl)-3-(4-(trifluoromethoxy)phenyl)propanamide], the IC50 in assay [1] stood at 420 nM.

As to `C=CCN(C(=O)CCc1ccc(C#N)cc1)C1CCN(CCC2(c3cccc(F)c3)CCN(C(=O)c3cc(S(=O)(=O)NC)c(F)cc3Cl)CC2)CC1` [N-allyl-N-(1-(2-(1-(2-chloro-4-fluoro-5-(N-methylsulfamoyl)benzoyl)-4-(3-fluorophenyl)piperidin-4-yl)ethyl)piperidin-4-yl)-3-(4-cyanophenyl)propanamide], the IC50 in assay [1] turned out to be 150 nM. With `C=CCN(C(=O)Cc1ccc(S(C)(=O)=O)cc1)C1CCN(CCC2(c3cccc(F)c3)CCN(C(=O)c3cc(S(=O)(=O)NC(C)(C)C)c(F)cc3Cl)CC2)CC1` [N-allyl-N-(1-(2-(1-(5-(N-tert-butylsulfamoyl)-2-chloro-4-fluorobenzoyl)-4-(3-fluorophenyl)piperidin-4-yl)ethyl)piperidin-4-yl)-2-(4-(methylsulfonyl)phenyl)acetamide], in assay [1], the IC50 is 65 nM. `C=CCN(C(=O)Cc1ccc(OC(F)(F)F)cc1)C1CCN(CCC2(c3cccc(F)c3)CCN(C(=O)c3cc(S(=O)(=O)NC(C)(C)C)c(F)cc3Cl)CC2)CC1` [N-allyl-N-(1-(2-(1-(5-(N-tert-butylsulfamoyl)-2-chloro-4-fluorobenzoyl)-4-(3-fluorophenyl)piperidin-4-yl)ethyl)piperidin-4-yl)-2-(4-(trifluoromethoxy)phenyl)acetamide]: the IC50 was found to be 18 nM in assay [1] and 87 nM in assay [2]. For the compound `C=CCN(C(=O)Cc1ccc(F)cc1)C1CCN(CCC2(c3cccc(F)c3)CCN(C(=O)c3cc(S(=O)(=O)NC(C)(C)C)c(F)cc3Cl)CC2)CC1` [N-allyl-N-(1-(2-(1-(5-(N-tert-butylsulfamoyl)-2-chloro-4-fluorobenzoyl)-4-(3-fluorophenyl)piperidin-4-yl)ethyl)piperidin-4-yl)-2-(4-fluorophenyl)acetamide], the IC50 in assay [1] was 52 nM. On the same count and under the same terms, the same measure for `C=CCN(C(=O)OCc1ccc(C(=O)OC)cc1)C1CCN(CCC2(c3cccc(F)c3)CCN(C(=O)c3cc(S(=O)(=O)NC(C)(C)C)c(F)cc3Cl)CC2)CC1` [methyl 4-((allyl(1-(2-(1-(5-(N-tert-butylsulfamoyl)-2-chloro-4-fluorobenzoyl)-4-(3-fluorophenyl)piperidin-4-yl)ethyl)piperidin-4-yl)carbamoyloxy)methyl)benzoate]: 41 nM.
